Earlier results in patent US10093983B2 (priority 2011, dated 2018).

Biological target: T1, D351Y or D351E mutant ESR1 (Homo sapiens, UniProt P03372, D351Y)
T1 sequence (P03372 1-595 D351Y): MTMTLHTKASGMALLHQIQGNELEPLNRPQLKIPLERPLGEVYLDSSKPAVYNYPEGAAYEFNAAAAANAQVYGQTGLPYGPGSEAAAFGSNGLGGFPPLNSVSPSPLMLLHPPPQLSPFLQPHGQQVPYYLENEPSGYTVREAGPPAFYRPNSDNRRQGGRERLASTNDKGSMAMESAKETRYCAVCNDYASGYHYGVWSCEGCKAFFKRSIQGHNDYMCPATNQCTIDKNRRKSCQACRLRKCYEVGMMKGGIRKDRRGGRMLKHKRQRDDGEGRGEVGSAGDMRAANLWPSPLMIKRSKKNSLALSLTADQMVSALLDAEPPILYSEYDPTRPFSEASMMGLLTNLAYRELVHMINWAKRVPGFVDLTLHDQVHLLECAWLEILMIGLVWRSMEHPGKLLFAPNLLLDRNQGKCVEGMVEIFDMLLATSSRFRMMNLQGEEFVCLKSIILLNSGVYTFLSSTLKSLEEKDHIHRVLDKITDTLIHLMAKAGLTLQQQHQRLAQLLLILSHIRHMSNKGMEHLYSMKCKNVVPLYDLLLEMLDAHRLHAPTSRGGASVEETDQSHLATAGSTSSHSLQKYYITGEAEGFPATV

effects of the antiestrogen upon mutating D351 to tyrosine: unaffected
SMILES: C[C@]12CC[C@@H]3c4ccc(O)cc4C[C@@H](CCCCCCCCC[S+]([O-])CCCC(F)(F)C(F)(F)F)[C@H]3[C@@H]1CC[C@@H]2O (stereo partly shown) [fulvestrant]
